Values of other authors as cited in patent EP0176772A1, “Process for sustaining the release of vitamins C and E” (RODISMA Pharmazeutische Produkte GmbH, priority 1984, dated 1986).
Where two headings read alike, the source gives them in different places.

Columns and labels:
[1] = not given; remark: listed apart in the source

Cc1c(C)c2c(c(C)c1O)CCC(C)(CCCC(C)CCCC(C)CCCC(C)C)O2 [D-alpha-Tocopherol]
maximale Plasmaspiegel, time of (orale Verabreichung von 600 mg an eine Versuchsperson (Hashim und Schuttringer)): ~7 Stunden | Maximum der Plasma-Tocopherol-Konzentration, time of (orale Verabreichung von (Hashim und Schuttringer)): 7 Stunden

Vitamin E
Maximum (plasma vitamin E), time of (human, in vivo, po): 7 Stunden

O=C1O[C@H]([C@@H](O)CO)C(O)=C1O [Vitamin C, Ascorbinsäure]
Resorption ([1]; Einzeldosen bis 180 mg, dosisproportional (Kübler und Gehler)): ~70% | resorbiert ([1]; Einzeldosis von 1 g, 3-Kompartiment-Modell (Hornig und Moser)): 75% | resorbiert ([1]; orale Ascorbinsäurebelastung mit 12 g): 16%
